Values quoted from earlier work as cited in patent US20040243224A1, “Methods and compositions for inhibiting narrowing in mammalian vascular pathways” (Medtronic Vascular, Inc., priority 2003, published 2004).

Experiments:
Conditions in all cases: stated as known in the art, no data
[1] = system: Ustilago maydis
[2] = system: Tetrahymena furgasoni
[3] = system: laboratory tumor cell lines

Question: For `COc1cc(O)c2c(c1)[C@H]1O[C@@H]1C[C@H](O)[C@H](O)C(=O)/C=C\C[C@H](C)OC2=O` [Hypothemycin, hypothemycin], which “activity against Ustilago maydis” value [1] is on record?
Answer: The value was “active”.

Question: What about the “activity against Tetrahymena furgasoni” value [2] of the same compound?
Answer: The value was “active”.

Question: And the “anti-tumor activity on laboratory tumor cell lines” value [3]?
Answer: Its value is “exhibits anti-tumor activity”.
